According to US6706663B2, “Herbicidal 3-heterocyclic substituted benzisothiazole and benzisoxazole compounds” (Wyeth, priority 2000, dated 2004):

Legend:
[1] = tested on: CASOB (Cassia obtusifolia); assay: Preemergence herbicidal evaluation; format: in vivo, L.; conditions: Rate 0.2500 kg/ha; preemergence; rated 4-5 weeks after treatment
From the text: (§1) Results of herbicide evaluation are expressed on a rating scale (0-9). The scale is based upon a visual observation of plant stand, vigor, malformation, size, chlorosis and overall plant appearance as compared with a control.
(§2) The preemergence herbicidal activity of the test compounds of the present invention is exemplified by the following tests in which the seeds of a variety of monocotyledonous and dicotyledonous plants are separately mixed with potting soil and planted on top of approximately one inch of soil in separate pint cups. […] The treated cups are then placed on greenhouse benches, watered and cared for in accordance with conventional greenhouse procedures. From four to five weeks after treatment, the tests are terminated and each cup is examined and rated according to the rating system provided in Example 87. The plant species used and the compounds evaluated are the same as those shown in Example 87.

[2] = tested on: AMBEL (Ambrosia artemisifolia); assay: Preemergence herbicidal evaluation; format: in vivo, L.; conditions: Rate 0.2500 kg/ha; preemergence; rated 4-5 weeks after treatment
From the text: as §1, §2

[3] = tested on: CHEAL (Chenopodium album); assay: Preemergence herbicidal evaluation; format: in vivo, L.; conditions: Rate 0.2500 kg/ha; preemergence; rated 4-5 weeks after treatment
From the text: as §1, §2

[4] = tested on: CASOB (Cassia obtusifolia); assay: Postemergence herbicidal evaluation; format: in vivo, L.; conditions: rate 0.1250 kg/ha
Description: (§3) In the tests, seedling plants are grown in jiffy flats for about two weeks. […] After spraying, the plants are placed on greenhouse benches and are cared for in accordance with conventional greenhouse procedures. From four to five weeks after treatment, the seedling plants are examined and rated according to the rating system set forth below. Where more than one test is involved for a given compound, the data are averaged.
as §1

[5] = tested on: AMBEL (Ambrosia artemisifolia); assay: Postemergence herbicidal evaluation; format: in vivo, L.; conditions: rate 0.1250 kg/ha
Description: as §3, §1

[6] = tested on: CHEAL (Chenopodium album); assay: Postemergence herbicidal evaluation; format: in vivo, L.; conditions: rate 0.1250 kg/ha
Description: as §3, §1

[7] = tested on: SETVI (Setaria viridis); assay: Preemergence herbicidal evaluation; format: in vivo, (L.) Beau; conditions: Rate 0.2500 kg/ha; preemergence; rated 4-5 weeks after treatment
From the text: as §1, §2

[8] = tested on: ECHCG (Echinochloa crus-galli); assay: Preemergence herbicidal evaluation; format: in vivo, (L.) Beau; conditions: Rate 0.2500 kg/ha; preemergence; rated 4-5 weeks after treatment
From the text: as §1, §2

[9] = tested on: ECHORC (Echinochloa oryzoides); assay: Flooded paddy, preemergence weed control; format: in vivo, Echinochloa oryzoides (Ard.) Fritsch.; conditions: rate 0.1250 kg/ha, rated 3-4 weeks after treatment, 0-9 rating scale
Description: as §1
(§4) Preemergence herbicidal activity under flooded paddy conditions is determined as follows: plant seeds or propagating organs are planted in the top 0.5 cm of silt loam soil in 32 oz. plastic containers with a diameter of 10.5 cm and no drainage holes. Water is added to these containers and maintained at 1.5 to 3 cm above the soil surface for the duration of the experiment. […] The treated containers are placed on greenhouse benches and cared for in accordance with conventional greenhouse procedures.

[10] = tested on: GLXMAW (Soybean, Williams); assay: Preemergence herbicidal evaluation; format: in vivo, Glycine max, (L.) Merr. cv Williams; conditions: Rate 0.2500 kg/ha; preemergence; rated 4-5 weeks after treatment
From the text: as §1, §2

[11] = tested on: GALAP (Galium aparine); assay: Postemergence herbicidal evaluation; format: in vivo; conditions: rate 0.1250 kg/ha
Description: as §3, §1

[12] = tested on: TRZAWR (Wheat, Winter, cv Riband); assay: Postemergence herbicidal evaluation; format: in vivo, Triticum aestivum; conditions: rate 0.1250 kg/ha
Description: as §3, §1

[13] = tested on: GLXMAW (Soybean, Williams); assay: Postemergence herbicidal evaluation; format: in vivo, Glycine max, (L.) Merr. cv Williams; conditions: rate 0.1250 kg/ha
Description: as §3, §1

[14] = tested on: CYPIR (Cyperus iria); assay: Flooded paddy, preemergence weed control; format: in vivo; conditions: rate 0.1250 kg/ha, rated 3-4 weeks after treatment, 0-9 rating scale
Description: as §1, §4

[15] = tested on: ABUTH (Abutilon theophrasti); assay: Preemergence herbicidal evaluation; format: in vivo, Medic.; conditions: Rate 0.2500 kg/ha; preemergence; rated 4-5 weeks after treatment
From the text: as §1, §2

[16] = tested on: ZEAMX (Corn, Field); assay: Postemergence herbicidal evaluation; format: in vivo, Zea mays, L.; conditions: rate 0.1250 kg/ha
Description: as §3, §1

[17] = tested on: CYPSE (Cyperus serotinus); assay: Flooded paddy, preemergence weed control; format: in vivo, Rottb.; conditions: rate 0.1250 kg/ha, rated 3-4 weeks after treatment, 0-9 rating scale
Description: as §1
Preemergence herbicidal activity under flooded paddy conditions is determined as follows: plant seeds or propagating organs are planted in the top 0.5 cm of silt loam soil in 32 oz. plastic containers with a diameter of 10.5 cm and no drainage holes. Water is added to these containers and maintained at 1.5 to 3 cm above the soil surface for the duration of the experiment. The test compounds are applied as aqueous/acetone mixtures 50/50 v/v pipetted directly into the flood water to give the equivalent of about 0.0080 to 0.1250 kg/ha of active ingredient. The treated containers are placed on greenhouse benches and cared for in accordance with conventional greenhouse procedures. Three to four weeks after treatment, the test is terminated and each container is examined and herbicidal effect rated according to the rating system provided in Example 87.

[18] = tested on: IPOHE (Ipomoea hederacea); assay: Postemergence herbicidal evaluation; format: in vivo, (L.) Jacq.; conditions: rate 0.1250 kg/ha
Description: as §3, §1

[19] = tested on: MOOVA (Monochoria vaginalis); assay: Flooded paddy, preemergence weed control; format: in vivo, Presl.; conditions: rate 0.1250 kg/ha, rated 3-4 weeks after treatment, 0-9 rating scale
Description: as §1, §4

[20] = tested on: ABUTH (Abutilon theophrasti); assay: Postemergence herbicidal evaluation; format: in vivo, Medic.; conditions: rate 0.1250 kg/ha
Description: as §3, §1

[21] = tested on: ORYSAT (Rice, Tebonnet); assay: Preemergence herbicidal evaluation; format: in vivo, Oryza sativa, (L.) Tebonnet; conditions: Rate 0.2500 kg/ha; preemergence; rated 4-5 weeks after treatment
From the text: as §1, §2

[22] = tested on: TRZAWR (Wheat, Winter, cv Riband); assay: Preemergence herbicidal evaluation; format: in vivo, Triticum aestivum; conditions: Rate 0.2500 kg/ha; preemergence; rated 4-5 weeks after treatment
From the text: as §1, §2

[23] = tested on: ORYSAT (Rice, Tebonnet); assay: Flooded paddy, post-transplant rice tolerance; format: in vivo, Oryza sativa, (L.) Tebonnet; conditions: flooded paddy, post-transplant rice; rate 0.1250 kg/ha; rated 3-4 weeks after treatment; 0-9 rating scale
Description: as §1
The tolerance of transplanted rice to post-transplanted herbicide application is determined as follows: two ten-day-old rice seedlings (cv. Tebonnet) are transplanted into silt loam soil in 32 oz. plastic containers with a diameter of 10.5 cm and no drainage holes. After transplanting, the containers are flooded and the water level is maintained at 1.5 to 3 cm above the soil surface. […] The treated containers are placed on greenhouse benches, watered such that the water level is maintained as stated above, and cared for in accordance with conventional greenhouse procedures.

[24] = tested on: SAGPY (Sagittaria pygmaea); assay: Flooded paddy, preemergence weed control; format: in vivo, L.; conditions: rate 0.1250 kg/ha, rated 3-4 weeks after treatment, 0-9 rating scale
Description: as §1, §4

[25] = tested on: ZEAMX (Corn, Field); assay: Preemergence herbicidal evaluation; format: in vivo, Zea mays, L.; conditions: Rate 0.2500 kg/ha; preemergence; rated 4-5 weeks after treatment
From the text: as §1, §2

[26] = tested on: ECHCG (Echinochloa crus-galli); assay: Postemergence herbicidal evaluation; format: in vivo, (L.) Beau; conditions: rate 0.1250 kg/ha
Description: as §3, §1

[27] = tested on: ORYSAT (Rice, Tebonnet); assay: Postemergence herbicidal evaluation; format: in vivo, Oryza sativa, (L.) Tebonnet; conditions: rate 0.1250 kg/ha
Description: as §3, §1

[28] = tested on: IPOHE (Ipomoea hederacea); assay: Preemergence herbicidal evaluation; format: in vivo, (L.) Jacq.; conditions: Rate 0.2500 kg/ha; preemergence; rated 4-5 weeks after treatment
From the text: as §1, §2

[29] = tested on: SETVI (Setaria viridis); assay: Postemergence herbicidal evaluation; format: in vivo, (L.) Beau; conditions: rate 0.1250 kg/ha
Description: In the tests, seedling plants are grown in jiffy flats for about two weeks. The test compounds are dispersed in 50/50 acetone/water mixtures containing 0.5% TWEEN® 20, a polyoxyethylene sorbitan monolaurate surfactant of Atlas Chemical Industries, in sufficient quantities to provide the equivalent of about 0.0040 kg to 1.000 kg per hectare of active compound when applied to the plants through a spray nozzle operating at 40 psi for a predetermined time. After spraying, the plants are placed on greenhouse benches and are cared for in accordance with conventional greenhouse procedures. From four to five weeks after treatment, the seedling plants are examined and rated according to the rating system set forth below. Where more than one test is involved for a given compound, the data are averaged.
as §1

Q: With `Cn1cccc1-c1nsc2ccc(-n3c(=O)cc(C(F)(F)F)n(C)c3=O)cc12` [Compound 6, 1-methyl-3-[3-(1-methylpyrrol-2-yl)-1,2-benzisothiazol-5-yl]-6-(trifluoromethyl)uracil] as the molecule, how does the “CASOB preemergence herbicidal rating” value [1] read?
A: Its value is 0.0.

Q: And the “AMBEL preemergence herbicidal rating” value [2]?
A: The value was 9.0.

Q: And the “CHEAL preemergence herbicidal rating” value [3]?
A: The value was 9.0.

Q: And the “Postemergence herbicidal rating, CASOB” value [4]?
A: Its value is 0.0.

Q: And the “Postemergence herbicidal rating, AMBEL” value [5]?
A: Its value is 3.0.

Q: And the “Postemergence herbicidal rating, CHEAL” value [6]?
A: Its value is 4.0.

Q: What about the “SETVI preemergence herbicidal rating” value [7] of the same molecule?
A: Its value is 8.0.

Q: What about the “ECHCG preemergence herbicidal rating” value [8] of the same molecule?
A: The value was 9.0.

Q: What about the “herbicidal rating, ECHORC” value [9] of the same molecule?
A: Its value is 2.0.

Q: What about the “GLXMAW preemergence herbicidal rating” value [10] of the same molecule?
A: Its value is 4.0.

Q: And the “Postemergence herbicidal rating, GALAP” value [11]?
A: The value was 4.0.

Q: And the “Postemergence herbicidal rating, TRZAWR” value [12]?
A: The value was 4.5.

Q: And the “Postemergence herbicidal rating, GLXMAW” value [13]?
A: The value was 7.5.

Q: And the “herbicidal rating, CYPIR” value [14]?
A: The value was 9.0.

Q: And the “ABUTH preemergence herbicidal rating” value [15]?
A: Its value is 9.0.

Q: What about the “Postemergence herbicidal rating, ZEAMX” value [16] of the same molecule?
A: The value was 5.0.

Q: What about the “herbicidal rating, CYPSE” value [17] of the same molecule?
A: Its value is 9.0.

Q: And the “Postemergence herbicidal rating, IPOHE” value [18]?
A: Its value is 9.0.

Q: And the “herbicidal rating, MOOVA” value [19]?
A: The value was 9.0.

Q: And the “Postemergence herbicidal rating, ABUTH” value [20]?
A: The value was 9.0.

Q: What about the “ORYSAT preemergence herbicidal rating” value [21] of the same molecule?
A: Its value is 2.0.

Q: What about the “TRZAWR preemergence herbicidal rating” value [22] of the same molecule?
A: Its value is 2.0.

Q: What about the “herbicidal rating, ORYSAT (rice tolerance)” value [23] of the same molecule?
A: The value was 3.0.

Q: What about the “herbicidal rating, SAGPY” value [24] of the same molecule?
A: The value was 4.0.

Q: What about the “ZEAMX preemergence herbicidal rating” value [25] of the same molecule?
A: Its value is 5.0.

Q: What about the “Postemergence herbicidal rating, ECHCG” value [26] of the same molecule?
A: The value was 0.0.

Q: What about the “Postemergence herbicidal rating, ORYSAT” value [27] of the same molecule?
A: Its value is 3.0.

Q: And the “IPOHE preemergence herbicidal rating” value [28]?
A: Its value is 9.0.

Q: And the “Postemergence herbicidal rating, SETVI” value [29]?
A: The value was 0.0.
